Test results as given in patent US12018280B2, “Method for freezing aggregates of pluripotent stem cell-derived cardiomyocytes” (KYOTO UNIVERSITY, priority 2016, dated 2024).

What was measured:
[1] = test system: aggregate of GCaMP-cardiomyocytes derived from human iPS cells; assay: GCaMP fluorescence wave (intracellular calcium) drug response of cardiomyocyte aggregates after freeze-thaw; assay type: cell-based; conditions: for change of TtP, CAD50, CAD70 and CAD90: 300 nM E4031, 1 μM astemizole, 1 μM nifekalant, 10 μM chromanole 293b, 30 μM mexiletine, 50 nM nifedipine; for change of PtP (beat interval): 300 nM isoproterenol, 1 μM propranol
Source text: A gene encoding GCaMP3, which is a calcium sensitive GFP that emits GFP fluorescence when bound to intracellular calcium, was introduced into a human iPS cell line (253G1) or a monkey iPS cell line (HT4M2) by AAVS1 region-specific gene transfer mediated by CRISPR. From the human GCaMP3-iPS cells, cardiomyocytes were induced in the same manner as in Section 1 to prepare an aggregate of cardiomyocytes that emitted GFP fluorescence in response to the change in intracellular calcium concentration during the beating. Also, from the monkey GCaMP-iPS cells, cardiomyocytes were induced using cytokines as described previously (Nat Biotechnol. 2007 September; 25(9): 1015-24. Epub 2007 Aug. 26) to prepare an aggregate of cardiomyocytes that emitted GFP fluorescence in response to the change in intracellular calcium concentration. Specifically, the monkey GCaMP-iPS cells were cultured for 24 hours with RPMI-B27 medium (Invitrogen) supplemented with human recombinant activin A (R&D Systems) (100 ng/ml), and then for four days with RPMI-B27 medium supplemented with human recombinant BMP4 (R&D Systems) (10 ng/ml). After the medium was replaced with RPMI-B27 medium without these cytokines, the cells were cultured for 21 days. The GCaMP-cardiomyocytes were dispersed into single cells with a trypsin/collagenase solution, and seeded on Sumilon PrimeSurface 96-well V-bottom plates at 1×10^5 cells/well to form uniform aggregates (700 to 1000 μm in diameter). The aggregates were used to analyze the change in intracellular calcium concentration wave, which synchronized the beating of cardiomyocytes.
derived from human iPS cells seven days after thawing to compare parameters of GCaMP fluorescence wave (change in intracellular calcium ion concentration) before and 10 minutes after the E4031 addition. Analyzed were time from the rise to the peak of fluorescence wave (TtP), and time from the rise to the peak of fluorescence wave and then to the decrease to 50% of the peak value (CaD50), to 70% of the peak value (CaD70), or to 90% of the peak value (CaD90) (FIG. 5-A).
E4031 was added to an aggregate of GCaMP-cardiomyocytes derived from human iPS cells seven days after thawing at 0, 0.3, 3, 30, or 300 nM to analyze the rate of change with E4031.

[2] = test system: cardiomyocytes induced from pluripotent stem cells; conditions: cardiomyocytes induced by the method described in WO 2015/182765; cited from earlier work
[3] = test system: aggregate of GCaMP-cardiomyocytes derived from human iPS cells; assay: Cardiotoxicity of anthracycline in cardiomyocyte aggregates after freeze-thaw (GCaMP fluorescence); assay type: cell-based
Procedure: To detect cardiotoxicity of anthracycline anticancer agents, doxorubicin (10 μM) or daunorubicin (20 μM), was added for 24 hours to an aggregate of GCaMP-cardiomyocytes derived from human iPS cells seven days after thawing. The intracellular calcium wave was plotted with GCaMP fluorescence for an aggregate of cardiomyocytes without any agent (control) (FIGS. 8-A, 8-B), three days after the addition of doxorubicin (FIG. 8-C), or three days after the addition of daunorubicin (FIG. 8-D).
The change in parameters of GCaMP fluorescence wave was analyzed with the addition of doxorubicin (10 μM) or daunorubicin (20 μM) (FIGS. 9-A, 9-B).

[4] = doxorubicin 10 μM or daunorubicin 20 μM
[5] = 50 μM ryanodine, seven days after thawing

For `Cc1cccc(CCN2CCC(C(=O)c3ccc(NS(C)(=O)=O)cc3)CC2)n1` [E4031], which “change of TtP, CAD50, CAD70 and CAD90” value ([1]; seven days after thawing) is on record?
The value was “extended”.

And the “extension of all GCaMP fluorescence wave parameters (TtP, CaD50, CaD70, CaD90)” value ([1]; 300 nM, 10 minutes after addition vs before, aggregate seven days after thawing)?
The value was “around 40%”.

And the “concentration at or above which TtP, CAD50, CAD70 and CAD90 were extended in a concentration-dependent manner” value ([1]; tested at 0, 0.3, 3, 30, 300 nM, seven days after thawing)?
Its value is at least 3 nM.

What about the “effect on action potential” value [2] of the same molecule?
The value was “prolongation of action potential”.

Which “change of TtP, CAD50, CAD70 and CAD90” value ([1]; seven days after thawing) does the source give for `COc1ccc(CCN2CCC(Nc3nc4ccccc4n3Cc3ccc(F)cc3)CC2)cc1` [astemizole] here?
The value was “extended”.

With `CCS(=O)(=O)N(C)[C@H]1c2cc(C#N)ccc2OC(C)(C)[C@@H]1O` [chromanole 293b] as the molecule, how does the “change of TtP, CAD50, CAD70 and CAD90” value ([1]; seven days after thawing) read?
Its value is “extended”.

And the “effect on action potential” value [2]?
The value was “prolongation of action potential”.

With `COc1cccc2c1C(=O)c1c(O)c3c(c(O)c1C2=O)C[C@@](O)(C(C)=O)C[C@@H]3O[C@H]1C[C@H](N)[C@H](O)[C@H](C)O1` [daunorubicin] as the molecule, how does the “amplitude of GCaMP fluorescence wave” value [3, 4] read?
Its value is “tended to decrease significantly”.

What about the “change of PtP” value [3, 4] of the same molecule?
Its value is “significantly decreased”.

What about the “change of TtP and CAD” value [3, 4] of the same molecule?
Its value is “not significantly changed”.

And the “intracellular calcium wave findings (cardiotoxicity)” value ([3]; doxorubicin 10 μM or daunorubicin 20 μM added for 24 hours, three days after the addition)?
The value was “short PtP, tachycardia, variable heartbeat interval, and arrhythmia”.

With `CC(C)NCC(O)c1ccc(O)c(O)c1` (centres unmarked) [isoproterenol] as the molecule, how does the “change of PtP (beat interval)” value [1, 5] read?
Its value is “decreased PtP”.

With `Cc1cccc(C)c1OCC(C)N` (centres unmarked) [mexiletine] as the molecule, how does the “change of TtP, CAD50, CAD70 and CAD90” value ([1]; seven days after thawing) read?
Its value is “extended”.

Which “change of TtP, CAD50, CAD70 and CAD90” value ([1]; seven days after thawing) does the source give for `Cn1c(NCCN(CCO)CCCc2ccc([N+](=O)[O-])cc2)cc(=O)n(C)c1=O` [nifekalant] here?
The value was “extended”.

With `CC(C)NCC(O)COc1cccc2ccccc12` (centres unmarked) [propranol] as the molecule, how does the “change of PtP (beat interval)” value [1, 5] read?
The value was “increased PtP”.

With ryanodine as the molecule, how does the “change of PtP (beat interval)” value [1, 5] read?
Its value is “increased PtP”.

What about the “peak value of GCaMP fluorescence (PeakValue, intracellular calcium increase)” value [1, 5] of the same molecule?
Its value is “decreased”.
